Data: patent US20240148821A1, “PHARMACEUTICAL USE OF CYCLIC PEPTIDE COMPOUND” (CHUGAI SEIYAKU KABUSHIKI KAISHA, priority 2021, published 2024)
Numbered stars: 1 amine (or outer) side, 2 acyl side, 3 side chain; on linkers, the order of the positions; unused ones are H or OH. Bridge positions count the residues as written; N and C are the ends. Square brackets hold non-standard residues; d marks the D form. Peptide text beside a SMILES is read from it. * marks the point of attachment. hPhe(3,5-F2-4-CF3) = N[C@@H](CCc1cc(F)c(C(F)(F)F)c(F)c1)C(=O)O; hPhe(3-Cl-4-CF3) = N[C@@H](CCc1ccc(C(F)(F)F)c(Cl)c1)C(=O)O; hPhe(3-F,4-CF3) = N[C@@H](CCc1ccc(C(F)(F)F)c(F)c1)C(=O)O; NMePhe(4-CF3) = CN[C@@H](Cc1ccc(C(F)(F)F)cc1)C(=O)O; hPhe(4-CF3) = N[C@@H](CCc1ccc(C(F)(F)F)cc1)C(=O)O; NMeAbu(4,4,4-F3) = CN[C@@H](CC(F)(F)F)C(=O)O; NMePhe(3-Cl) = CN[C@@H](Cc1cccc(Cl)c1)C(=O)O; NMePhe(4-Cl) = CN[C@@H](Cc1ccc(Cl)cc1)C(=O)O; NMedβ3hAla = C[C@H](CC(=O)[*:2])N(C)[*:1]; NMeGly(cPent) = CN[C@H](C(=O)O)C1CCCC1; Phe(3-I) = N[C@@H](Cc1cccc(I)c1)C(=O)O; Pro(4,4-F2) = O=C(O)[C@@H]1CC(F)(F)CN1; NMeCha = CN[C@@H](CC1CCCCC1)C(=O)O; N(isopentyl)Gly = CC(C)CCNCC(=O)O; NMeChg = CN[C@H](C(=O)O)C1CCCCC1; NMeF = CN[C@@H](Cc1ccccc1)C(=O)O; NMeD = CN[C@@H](CC(=O)O)C(=O)O; NMeL = CN[C@@H](CC(C)C)C(=O)O; NMeNva = CCC[C@H](NC)C(=O)O; NMeV = CN[C@H](C(=O)O)C(C)C; d(β3hA) = C[C@@H](N)CC(=O)O; NMeA = CN[C@@H](C)C(=O)O; NMeAib = CNC(C)(C)C(=O)O; Nle = CCCC[C@H](N)C(=O)O; Piperidide = C1CCN(*)CC1; Pyrrolidide = C1CCN(*)C1; Ac5c = NC1(C(=O)O)CCCC1; Aze = O=C(O)[C@@H]1CCN1; Sar = CNCC(=O)O

System: Human pancreatic cancer cell line AsPC-1 (G12D mutation Kras)
Test: AsPC-1 cell growth inhibition (AsPC-1 CGI)
Type: cell-based
Conditions: read-out: AsPC-1 cell growth inhibition, 50% growth inhibitory concentration (IC50 value); 96 hours, CellTiter-Glo, values classified in ranges
Protocol: Test compounds were serially dilated with dimethyl sulfoxide, and 200 nL was then dispensed to a U-bottom 96-well plate using Labcyte Echo. […] The cell suspension was dispensed to a. plate containing a test compound at 100 μL per well and incubated at 37° C. in a 5% carbon dioxide gas incubator. 96 hours later, 80 μL of CellTiter-Glo (Promega) was added to each well and fluorescence was measured.

`CC[C@H](C)[C@@H]1NC(=O)[C@H](CC(C)C)N(C)C(=O)C[C@@H](C(=O)N2CCCCC2)N(C)C(=O)[C@H](C2CCCCC2)N(C)C(=O)[C@H](C(C)C)NC(=O)[C@@H]2CCCN2C(=O)[C@H](CCc2ccc(C(F)(F)F)c(Cl)c2)NC(=O)CN(C)C(=O)[C@H](CC2CCCCC2)N(C)C(=O)CN(C)C(=O)CN(C)C1=O` [Compound 1157] ([NMeL]I[Sar][Sar][NMeCha][Sar][hPhe(3-Cl-4-CF3)]PV[NMeChg][NMeD]-Piperidide; lactam N-11) and `CCC[C@H]1C(=O)NC2(CCCC2)C(=O)N(C)[C@@H](C2CCCCC2)C(=O)N(C)[C@H](C(=O)N2CCCCC2)CC(=O)N(C)[C@@H](CC(C)C)C(=O)N[C@@H]([C@@H](C)CC)C(=O)N(C)CC(=O)N2CCC[C@H]2C(=O)N(C)[C@@H](CC2CCCCC2)C(=O)N(C)CC(=O)N[C@@H](CCc2ccc(C(F)(F)F)c(Cl)c2)C(=O)N1C` [Compound 392] ([NMeL]I[Sar]P[NMeCha][Sar][hPhe(3-Cl-4-CF3)][NMeNva][Ac5c][NMeChg][NMeD]-Piperidide; lactam N-11) cannot be ordered by IC50: over 500 nM for the first, over 500 nM for the second.

`CC[C@H](C)[C@@H]1NC(=O)[C@H](CC(C)C)N(C)C(=O)C[C@@H](C)NC(=O)[C@H](C(C)C)N(C)C(=O)C2(CCCC2)NC(=O)[C@@H]2CCCN2C(=O)[C@H](CCc2ccc(C(F)(F)F)c(Cl)c2)NC(=O)CN(C)C(=O)[C@H](CC2CCCCC2)N(C)C(=O)CN(CCC(C)C)C(=O)CN(C)C1=O` [Compound 801] (cyclo([Ac5c][NMeV][d(β3hA)][NMeL]I[Sar][N(isopentyl)Gly][NMeCha][Sar][hPhe(3-Cl-4-CF3)]P)) and `CC[C@H](C)[C@@H]1NC(=O)[C@H](C2CCCC2)N(C)C(=O)C[C@@H](C)NC(=O)[C@H](C(C)C)N(C)C(=O)C2(CCCC2)NC(=O)[C@@H]2CCCN2C(=O)[C@H](CCc2ccc(C(F)(F)F)c(Cl)c2)NC(=O)CN(C)C(=O)[C@H](CC2CCCCC2)N(C)C(=O)[C@@H]2CCN2C(=O)[C@H](C)N(C)C1=O` [Compound 570] (cyclo([Ac5c][NMeV][d(β3hA)][NMeGly(cPent)]I[NMeA][Aze][NMeCha][Sar][hPhe(3-Cl-4-CF3)]P)) cannot be ordered by IC50: over 500 nM for the first, over 500 nM for the second.

`CC[C@H](C)[C@@H]1NC(=O)[C@H](C)N(C)C(=O)C[C@@H](C)NC(=O)[C@H](C(C)C)N(C)C(=O)[C@H](Cc2ccccc2)N(C)C(=O)[C@H](CC(C)C)N(C)C(=O)[C@H](CCc2ccc(C(F)(F)F)cc2)NC(=O)CN(C)C(=O)[C@H](Cc2ccc(Cl)cc2)N(C)C(=O)CN(C)C(=O)[C@@H]2CCN2C1=O` [Compound 71] (cyclo([Aze][Sar][NMePhe(4-Cl)][Sar][hPhe(4-CF3)][NMeL][NMeF][NMeV][d(β3hA)][NMeA]I)) and `CC[C@H](C)[C@@H]1NC(=O)[C@H](C(C)C)N(C)C(=O)C[C@@H](C)NC(=O)[C@H](CC(C)C)N(C)C(=O)C2(CCCC2)NC(=O)[C@H](CC(C)C)N(C)C(=O)[C@H](CCc2ccc(C(F)(F)F)c(Cl)c2)NC(=O)CN(C)C(=O)[C@H](Cc2ccc(Cl)cc2)N(C)C(=O)[C@@H]2CCN2C(=O)CN(C)C1=O` [Compound 158] (cyclo([Ac5c][NMeL][d(β3hA)][NMeV]I[Sar][Aze][NMePhe(4-Cl)][Sar][hPhe(3-Cl-4-CF3)][NMeL])) cannot be ordered by IC50: over 500 nM for the first, over 500 nM for the second.

`CC[C@H](C)[C@@H]1NC(=O)[C@H](CC(F)(F)F)N(C)C(=O)C[C@@H](C(=O)N2CCCC2)N(C)C(=O)[C@H](C2CCCCC2)N(C)C(=O)C2(CCCC2)NC(=O)[C@@H]2CCCN2C(=O)[C@H](CCc2ccc(C(F)(F)F)c(Cl)c2)NC(=O)CN(C)C(=O)[C@H](Cc2ccc(C(F)(F)F)cc2)N(C)C(=O)CN(C)C(=O)CN(C)C1=O` [Compound 245] ([NMeAbu(4,4,4-F3)]I[Sar][Sar][NMePhe(4-CF3)][Sar][hPhe(3-Cl-4-CF3)]P[Ac5c][NMeChg][NMeD]-Pyrrolidide; lactam N-11) and `CC[C@H](C)[C@@H]1NC(=O)[C@H](CC(F)(F)F)N(C)C(=O)C[C@@H](C(=O)N2CCCC2)N(C)C(=O)[C@H](C2CCCCC2)N(C)C(=O)C2(CCCC2)NC(=O)[C@@H]2CC(F)(F)CN2C(=O)[C@H](CCc2cc(F)c(C(F)(F)F)c(F)c2)NC(=O)CN(C)C(=O)[C@H](Cc2ccc(C(F)(F)F)cc2)N(C)C(=O)CN(C)C(=O)CN(C)C1=O` [Compound 1303] ([NMeAbu(4,4,4-F3)]I[Sar][Sar][NMePhe(4-CF3)][Sar][hPhe(3,5-F2-4-CF3)][Pro(4,4-F2)][Ac5c][NMeChg][NMeD]-Pyrrolidide; lactam N-11) cannot be ordered by IC50: at most 20 nM for the first, at most 20 nM for the second.

`CCCC[C@@H]1NC(=O)[C@H](Cc2cccc(I)c2)NC(=O)CN(C)C(=O)[C@H](Cc2ccc(Cl)cc2)N(C)C(=O)CN(C)C(=O)CN(C)C(=O)[C@H]([C@@H](C)CC)NC(=O)[C@H](CC(C)C)N(C)C(=O)C[C@@H](C(=O)N2CCCCC2)N(C)C(=O)[C@H](CC(C)C)NC(=O)[C@H](Cc2cccc(Cl)c2)N(C)C1=O` [Compound 1044] ([NMeL]I[Sar][Sar][NMePhe(4-Cl)][Sar][Phe(3-I)][Nle][NMePhe(3-Cl)]L[NMeD]-Piperidide; lactam N-11) and `CC[C@H](C)[C@@H]1NC(=O)[C@H](CC(C)C)N(C)C(=O)C[C@@H](C)N(C)C(=O)[C@H](CC(C)C)NC(=O)C(C)(C)N(C)C(=O)[C@H](CC(C)C)NC(=O)[C@H](CCc2ccc(C(F)(F)F)c(F)c2)NC(=O)CN(C)C(=O)[C@H](CC2CCCCC2)N(C)C(=O)[C@@H]2CCN2C(=O)CN(C)C1=O` [Compound 178] (cyclo([Aze][NMeCha][Sar][hPhe(3-F,4-CF3)]L[NMeAib]L[NMedβ3hAla][NMeL]I[Sar])) cannot be ordered by IC50: over 500 nM for the first, over 500 nM for the second.
